Results taken from patent US10626144B2, “Peptide derivatives and uses thereof” (Nosopharm, priority 2014, dated 2020).
Square brackets hold non-standard residues; d marks the D form. Peptide text beside a SMILES is read from it. Phe(4-CF3) = N[C@@H](Cc1ccc(C(F)(F)F)cc1)C(=O)O; Phe(4-CONH2) = NC(=O)c1ccc(C[C@H](N)C(=O)O)cc1; Phe(3-OMe) = COc1cccc(C[C@H](N)C(=O)O)c1; Phe(4-Cl) = N[C@@H](Cc1ccc(Cl)cc1)C(=O)O; Phe(4-NH2) = Nc1ccc(C[C@H](N)C(=O)O)cc1; Phe(4-F) = N[C@@H](Cc1ccc(F)cc1)C(=O)O; Phe(4-Me) = Cc1ccc(C[C@H](N)C(=O)O)cc1; Dab(3S-OH) = NC[C@H](O)[C@H](N)C(=O)O; 2Pal = N[C@@H](Cc1ccccn1)C(=O)O; 3Pal = N[C@@H](Cc1cccnc1)C(=O)O; ΔZArg = N=C(N)NCC/C=C(\N)C(=O)O; NMeK = CN[C@@H](CCCCN)C(=O)O; dOrn = NCCC[C@@H](N)C(=O)O

Key:
Assay in all cases: MIC, broth microdilution (CLSI), reference strain
Conditions in all cases: CAMHB
[1] = test system: Staphylococcus aureus ATCC 13709
[2] = test system: Pseudomonas aeruginosa ATCC 27853
[3] = test system: Acinetobacter baumannii ATCC 19606
[4] = test system: Escherichia coli ATCC 25922

Row | Compound | Sa: MIC Staphylococcus aureus ATCC 13709 [1] | Pa: MIC Pseudomonas aeruginosa ATCC 27853 [2] | Ab: MIC Acinetobacter baumannii ATCC 19606 [3] | Ec: MIC Escherichia coli ATCC 25922 [4]
1 | COc1cccc(C[C@H](NC(=O)[C@@H]2CCCN2C(=O)[C@@H](CCCN)NC(=O)CNC(=O)[C@H](C)NC(=O)[C@@H](NC(=O)[C@@H](N)CCCCN)[C@@H](O)CN)C(=O)N[C@@H](CCCCN)C(=O)N/C(=C\CCNC(=N)N)C(=O)O)c1 [24.92] (H-K[Dab(3S-OH)]AG[dOrn]P[Phe(3-OMe)]K[ΔZArg]-OH) | ++ (≤8 μg/mL) | − (>32 μg/mL) | − (>32 μg/mL) | + (≤32 μg/mL)
2 | C[C@H](NC(=O)[C@@H](NC(=O)[C@@H](N)CCCCN)[C@@H](O)CN)C(=O)NCC(=O)N[C@H](CCCN)C(=O)N1CCC[C@H]1C(=O)N[C@@H](Cc1ccc(C(F)(F)F)cc1)C(=O)N[C@@H](CCCCN)C(=O)N/C(=C\CCNC(=N)N)C(=O)O [24.94] (H-K[Dab(3S-OH)]AG[dOrn]P[Phe(4-CF3)]K[ΔZArg]-OH) | ++ (≤8 μg/mL) | − (>32 μg/mL) | − (>32 μg/mL) | ++ (≤8 μg/mL)
3 | CN[C@@H](CCCCN)C(=O)N[C@H](C(=O)N[C@@H](C)C(=O)NCC(=O)N[C@H](CCCN)C(=O)N1CCC[C@H]1C(=O)N[C@@H](Cc1ccc(Cl)cc1)C(=O)N[C@@H](CCCCN)C(=O)N/C(=C\CCNC(=N)N)C(=O)O)[C@@H](O)CN [24.98] (H-[NMeK][Dab(3S-OH)]AG[dOrn]P[Phe(4-Cl)]K[ΔZArg]-OH) | ++ (≤8 μg/mL) | − (>32 μg/mL) | − (>32 μg/mL) | + (≤32 μg/mL)
4 | C[C@H](NC(=O)[C@@H](NC(=O)[C@@H](N)CCCCN)[C@@H](O)CN)C(=O)NCC(=O)N[C@H](CCCN)C(=O)N1CCC[C@H]1C(=O)N[C@@H](Cc1ccc(C(N)=O)cc1)C(=O)N[C@@H](CCCCN)C(=O)N/C(=C\CCNC(=N)N)C(=O)O [24.101] (H-K[Dab(3S-OH)]AG[dOrn]P[Phe(4-CONH2)]K[ΔZArg]-OH) | ++ (≤8 μg/mL) | − (>32 μg/mL) | − (>32 μg/mL) | + (≤32 μg/mL)
5 | C[C@H](NC(=O)[C@@H](NC(=O)[C@@H](N)CCCCN)[C@@H](O)CN)C(=O)NCC(=O)N[C@H](CCCN)C(=O)N1CCC[C@H]1C(=O)N[C@@H](Cc1ccc(F)cc1)C(=O)N[C@@H](CCCCN)C(=O)N/C(=C\CCNC(=N)N)C(=O)O [24.102] (H-K[Dab(3S-OH)]AG[dOrn]P[Phe(4-F)]K[ΔZArg]-OH) | ++ (≤8 μg/mL) | − (>32 μg/mL) | − (>32 μg/mL) | + (≤32 μg/mL)
6 | Cc1ccc(C[C@H](NC(=O)[C@@H]2CCCN2C(=O)[C@@H](CCCN)NC(=O)CNC(=O)[C@H](C)NC(=O)[C@@H](NC(=O)[C@@H](N)CCCCN)[C@@H](O)CN)C(=O)N[C@@H](CCCCN)C(=O)N/C(=C\CCNC(=N)N)C(=O)O)cc1 [24.104] (H-K[Dab(3S-OH)]AG[dOrn]P[Phe(4-Me)]K[ΔZArg]-OH) | ++ (≤8 μg/mL) | − (>32 μg/mL) | − (>32 μg/mL) | + (≤32 μg/mL)
7 | C[C@H](NC(=O)[C@@H](NC(=O)[C@@H](N)CCCCN)[C@@H](O)CN)C(=O)NCC(=O)N[C@H](CCCN)C(=O)N1CCC[C@H]1C(=O)N[C@@H](Cc1ccc(N)cc1)C(=O)N[C@@H](CCCCN)C(=O)N/C(=C\CCNC(=N)N)C(=O)O [24.105] (H-K[Dab(3S-OH)]AG[dOrn]P[Phe(4-NH2)]K[ΔZArg]-OH) | + (≤32 μg/mL) | − (>32 μg/mL) | − (>32 μg/mL) | + (≤32 μg/mL)
8 | C[C@H](NC(=O)[C@@H](NC(=O)[C@@H](N)CCCCN)[C@@H](O)CN)C(=O)NCC(=O)N[C@H](CCCN)C(=O)N1CCC[C@H]1C(=O)N[C@@H](Cc1ccccn1)C(=O)N[C@@H](CCCCN)C(=O)N/C(=C\CCNC(=N)N)C(=O)O [24.106] (H-K[Dab(3S-OH)]AG[dOrn]P[2Pal]K[ΔZArg]-OH) | + (≤32 μg/mL) | − (>32 μg/mL) | − (>32 μg/mL) | + (≤32 μg/mL)
9 | C[C@H](NC(=O)[C@@H](NC(=O)[C@@H](N)CCCCN)[C@@H](O)CN)C(=O)NCC(=O)N[C@H](CCCN)C(=O)N1CCC[C@H]1C(=O)N[C@@H](Cc1cccnc1)C(=O)N[C@@H](CCCCN)C(=O)N/C(=C\CCNC(=N)N)C(=O)O [24.107] (H-K[Dab(3S-OH)]AG[dOrn]P[3Pal]K[ΔZArg]-OH) | + (≤32 μg/mL) | − (>32 μg/mL) | − (>32 μg/mL) | + (≤32 μg/mL)
